{
  "source": "patent US5505715A",
  "about": "“Iontophoretic transdermal delivery of deoxyspergualin compounds” (priority 1994, dated 1996)",
  "key": {"immune activity": {"system": "immune activity", "conditions": "cited from earlier work"}, "interleukin-2 production": {"system": "interleukin-2 production", "conditions": "cited from earlier work"}, "[1]": {"system": "anti-KLH antibody response (keyhole limpet hemocyanin)", "test": "in vivo immunosuppression (anti-KLH antibody response) in fuzzy rats", "design": "species or system fuzzy rat", "source_text": "The humoral response of animals to the foreign protein keyhole limpet hemocyanin (KLH) is used routinely as a model system to test the efficacy of immunosuppressive drugs. Activity in this model has correlated well with activity for suppressing rejection of an allograft or suppressing the development of autoimmune disease in animals. […] The antibody level in the treated animals on the fourteenth day following the initial treatment was still only 6% of the level of the control animals.\nSix fuzzy rats were used in this study. The procedure for this study was based on the model described by Tepper et al., Inhibition of Antibody Production by the Immunosuppressive Agent, 15-Deoxyspergualin, Transplant Proc., 23:328-32 (1991). This model involves immunizing the animals with a potent immunogenic antigen, keyhole limpet hemocyanin (KLH). The serum anti-KLH antibody levels (immune response) in the control and treated animals are then measured over 14 days. An effective immunosuppressive agent should result in a suppression of the immune response in the treated animals.\nAll six fuzzy rats were immunized with a solution of keyhole limpet hemocyanin (1 mg) by intraperitoneal injection. Two rats were used as controls and were not treated with DSG. The other four rats received DSG by transdermal iontophoresis. The electrodes and power supply used in the study of Example 2 were also used for this study. DSG solution (1.5 ml, 15.34 mg) was added to the donor (active) electrode just prior to the experiment. The electrodes were applied to each of the four participating fuzzy rats (one on either side of the spine). Prior to DSG treatment, the animals were anesthetized with METOFANE (methoxyflurane, Pitman-Moore, Mundelein, Ill.) and the hair on the dorsal side depilated. An anesthetic cocktail consisting of 10 ml of KETASET (ketamine HCL, 100 mg/ml; Aveco Co., Inc., Fort Dodge, Iowa) mixed with 2 ml ROMPUN (xylazine, 20 mg/ml; Mobay Corp., Shawnee, Kans.) was used at 0.1 ml per 100 g in order to maintain the animals under anesthesia during the treatment period. A current density of 0.5 mA/cm^2 /hr (2.9 mA total) was used to deliver the DSG. The four rats received DSG by iontophoresis for 3 hours daily over a period of three days (Days 0, 1 and 2) (Day 0 was the first day of the experiment). During this period food and water were provided ad libitum and these four animals were housed individually in metabolic cages so that urine could be collected for analysis. On Day 3 the animals were weighed and then returned to their regular cages for the remaining duration of the study. […]\nThe blood samples were stored on ice for 1 hour to coagulate and then centrifuged. The serum was separated and analyzed using an ELISA method described below. […] Aliquots were analyzed by HPLC. […]"}, "[2]": {"conditions": "cited from earlier work"}, "[3]": {"system": "human anti-mouse antibody (HAMA) response", "conditions": "patients treated with monoclonal antibody therapy, cited from earlier work"}, "[4]": {"system": "rheumatoid arthritis, diabetes, lupus and multiple sclerosis models", "conditions": "in vivo; cited from earlier work"}, "[5]": {"conditions": "cited from earlier work", "remark": "listed apart in the source"}, "[6]": {"design": "species or system fuzzy rat", "conditions": "rat, in vivo", "procedure": "Applicants have further conducted an in vivo study to investigate the rate and extent of absorption of DSG in fuzzy rats following transdermal iontophoretic administration. Using iontophoresis, approximately 4 mg of DSG (i.e., between 15-20 mg/kg) was delivered to fuzzy rats over a three-hour period. This is equivalent to a delivery rate of about 230 μg/cm^2 /hr of DSG. Relatively high serum levels of DSG, about 18 μg/ml, were observed after iontophoretic administration.\nAn aqueous solution of DSG trihydrochloride (10 mg/ml) was prepared two days prior to the experiment and stored at -5° C. until the start of the experiment. This solution was kept refrigerated during the course of the experiment.\nFour male fuzzy rats from Harlan Laboratories (Indianapolis, Ind.) were used in this study after a one week quarantine period. The fuzzy rat is a hypotrichotic genetic mutuant of the normal albino rat. The main difference between adult fuzzy and normal haired rats is the poorly developed hair follicles in the skin of the former. As a result, adult fuzzy rats are almost devoid of hair. The fuzzy rats have an intact immune system. […]\nBlood samples were taken from the tail artery during the treatment and at the end of the treatment period. […] Blood samples, used electrodes and skin wipes, and urine were analyzed for DSG by scintillation counting. The urine samples were also analyzed by HPLC."}, "[7]": {"procedure": "Applicants have evaluated the in vitro delivery of DSG through human cadaver skin using iontophoresis.\nAn in vitro skin permeation study was conducted to evaluate the iontophoretic transdermal delivery of deoxyspergualin trihydrochloride (DSG) (MW=496) through human cadaver skin mounted in side-by-side glass diffusion cells. A 1.09% w/v solution of DSG was used as the donor solution. The receptor solution was 0.5M NaH2 PO4 aqueous solution. A commercially available power supply (Scepter, Keltronics Corp., Oklahoma City, Okla.) was used. Platinum electrodes were used for this study. The anode was connected to the electrode in the donor side while the cathode was connected to the electrode in the receptor (counterion) fluid. A constant DC current (0.5 mA, 0.78 mA/cm^2) was applied for a period of 48 hours. The receptor solution was sampled at appropriate time intervals. The samples were analyzed for DSG by reverse-phase HPLC using post-column derivatization and fluorescence detection."}, "allograft survival": {"system": "allograft survival", "conditions": "used prophylactically; cited from earlier work"}, "[8]": {"system": "organ transplant rejection", "conditions": "humans; cited from earlier work"}, "tumors": {"system": "tumors", "conditions": "cited from earlier work"}},
  "note": "“Also recorded” adds a separate entry of the source. Like-named read-outs stand apart in the source and are kept apart here.",
  "data": [
    {"molecule": "N=C(N)NCCCCCCC(=O)NC(O)C(=O)NCCCCNCCCN", "note": "(stereo not drawn) [DSG]", "values": [
      {"measurement": "immunosuppressive activity (in words)", "setting": "immune activity", "value": "excellent immunosuppressive activity"},
      {"measurement": "immunosuppressive potency relative to marketed immunosuppressants", "setting": "immune activity; versus cyclosporin A, azathioprine and prednisone", "value": "at least as potent as other, currently marketed immunosuppressants"},
      {"measurement": "inhibition of interleukin-2 production", "setting": "interleukin-2 production", "value": "does not inhibit interleukin-2production"},
      {"measurement": "antibody level in treated animals as % of control", "setting": "[1]; Day 14, iontophoresis 3 hours daily for three days", "value": 6, "unit": "%"},
      {"measurement": "suppression of immune response", "setting": "[1]; iontophoresis 3 hours daily for three days, versus untreated control", "value": "substantially suppressed the immune response; also recorded: effectively suppressed the immune response"},
      {"measurement": "deaths before Day 7", "setting": "[1]; of four rats treated by iontophoresis", "value": "Two"},
      {"measurement": "dose delivered relative to maximum tolerated dose (MTD)", "setting": "[1]; rat, in vivo", "value": "proximate to the maximum tolerated dose (MTD)"},
      {"measurement": "Cmax", "setting": "[2]; 4 mg/kg by 3 hour i.v. infusion", "value": "about 10 μg/ml"},
      {"measurement": "clearance from plasma (in words)", "setting": "[2]; human, in vivo", "value": "relatively rapid clearance"},
      {"measurement": "plasma clearance", "setting": "[2]; human, in vivo", "value": "about 48,000 ml/hr"},
      {"measurement": "activity against HAMA response", "setting": "[3]", "value": "immunosuppressive activity against the human anti-mouse antibody (HAMA) response"},
      {"measurement": "activity against HAMA response", "setting": "[3]; listed as Deoxyspergualin", "value": "useful to suppress human anti-mouse antibody (HAMA) response"},
      {"measurement": "activity in animal models of autoimmune disease", "setting": "[4]", "value": "effective in animal models in the treatment of autoimmune diseases like rheumatoid arthritis, diabetes and multiple sclerosis"},
      {"measurement": "side effect profile", "setting": "[5]; compared to cyclosporin A, azathioprine and prednisone (b7 also OKT3)", "value": "superior side effect profile"},
      {"measurement": "dose limiting toxicity", "setting": "[5]; in vivo", "value": "myelosuppression"},
      {"measurement": "nephrotoxicity", "setting": "[5]; unlike cyclosporin A", "value": "not nephrotoxic"},
      {"measurement": "dose delivered by iontophoresis per body weight", "setting": "[6]", "value": "15 to 20", "unit": "mg/kg"},
      {"measurement": "serum level of DSG", "setting": "[6]; topical or ocular, 3 h", "value": "about 18 μg/ml"},
      {"measurement": "change of permeation rate in later time period", "setting": "[7]", "value": "permeation rate decreased during the later time period"},
      {"measurement": "equivalent delivery for a 10 cm^2 delivery system", "setting": "[7]", "value": 135, "unit": "mg/day"},
      {"measurement": "equivalent dose for a 70 kg average body weight person", "setting": "[7]", "value": 2, "unit": "mg/kg/day"},
      {"measurement": "expected delivery for a 20 cm^2 donor electrode", "setting": "[7]", "value": 270, "unit": "mg/day"},
      {"measurement": "passive permeation across human cadaver skin", "setting": "[7]", "value": "very little passive permeation"},
      {"measurement": "permeation rate across human cadaver skin", "setting": "[7]", "value": 564, "unit": "μg/cm^2 /hr"},
      {"measurement": "activity in extending allograft survival", "setting": "allograft survival", "value": "significant activity in extending allograft survival"},
      {"measurement": "clinical activity as an immunosuppressant", "setting": "[8]", "value": "clinical activity as an immunosuppressant"},
      {"measurement": "antitumor efficacy", "setting": "tumors", "value": "appears to have antitumor efficacy"}
    ]}
  ]
}
